Assay results taken from patent US20240246913A1, “2-CARBOXYL-INDOLE INHIBITORS OF METALLO-BETA-LACTAMASES” (Oxford University Innovation Limited, priority 2021, published 2024).

Assays:
VIM-2 = VIM-2 (Escherichia coli, UniProt Q5U7L7); assay: MBL inhibition, FC-5 fluorescence assay, VIM-2; format: biochemical; settings: FC-5 cephalosporin substrate, ranges of obtained pIC50, read-out: pIC50 VIM-2 (converted)
Method in brief: (§1)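 FC-5 turnover; fluorescence ex 380 nm/em 460 nm; initial rates; normalized dose-response, variable-slope fit; 4 replicates per concentration point.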

NDM-1 = NDM-1 (Klebsiella pneumoniae, UniProt C7C422); assay: MBL inhibition, FC-5 fluorescence assay, NDM-1; format: biochemical; settings: FC-5 cephalosporin substrate, fluorescence; ranges of obtained pIC50; read-out: pIC50 NDM-1 (converted)
Method in brief: as §1

IMP-1 = IMP-1 (Serratia marcescens, UniProt P52699); assay: MBL inhibition, FC-5 fluorescence assay, IMP-1; format: biochemical; settings: FC-5 cephalosporin substrate, fluorescence; ranges of obtained pIC50; read-out: pIC50 IMP-1 (converted)
Method in brief: as §1

VIM-1 = VIM-1 (Pseudomonas aeruginosa, UniProt A0A0F7KYQ8); assay: MBL inhibition, FC-5 fluorescence assay, VIM-1; format: biochemical; settings: FC-5 cephalosporin substrate, ranges of obtained pIC50, read-out: pIC50 VIM-1 (converted)
Method in brief: as §1

[1] = tested on: Acinetobacter baumannii NDM-1; assay: Antibiotic susceptibility testing (MIC), AB NDM-1; format: cell-based; settings: agar or broth dilution (CLSI/EUCAST)
Experimental: (§2) Antibiotic susceptibility testing was performed using the agar or broth dilution method, in line with the Clinical and Laboratory Standards Institute (CLSI) and European Committee on Antimicrobial Susceptibility Testing (EUCAST) requirements.

Escherichia coli NDM-7 = assay: Antibiotic susceptibility testing (MIC), EC NDM-7; format: cell-based; settings: agar or broth dilution (CLSI/EUCAST)
Experimental: as §2

Escherichia coli NDM-1 = assay: Antibiotic susceptibility testing (MIC), EC NDM-1; format: cell-based; settings: agar or broth dilution (CLSI/EUCAST)
Experimental: as §2

[2] = Metabolic stability in human hepatocytes; format: in vitro ADME; settings: cryopreserved human hepatocytes, 1 μM compound, 37° C., up to 90 min, read-out: Metabolic stability in hepatocytes, in vitro t1/2, Human
Experimental: (§3) Metabolic stability assays were performed in cryopreserved human and mouse hepatocytes. The hepatocytes were thawed and added to “Thawing media”, and centrifuged to pellet the hepatocytes. The cell pellet was taken up in Williams medium E (Invitrogen A1217601), the number of cells was calculated and adjusted to 1.0×10^6 cells/mi. The incubation was carried out on a heater-shaker at […], in a 24-well Picoplate (round bottom, PerkinElmer), using an incubation volume of […]. Thus, to obtain a final compound concentration of 1 μM, 0.7 μl of the 1 mM compound stock solution was pipetted to the wells of the plate. Reaction was initiated by adding 700 μl of cell suspension. Samples were incubated at 37° C. for […] and a zero sample was taken, i.e. 100 μl sample was removed to a 96-well plate and the reaction was quenched by adding 100 μl of 100% MeCN containing 50 nM Warfarin as an internal control. Consecutive samples were taken at time-points 5 min, 15 min, 30 min, 60 min, and 90 min. After finishing the experiment, samples were centrifuged at 3000 rpm for 15 min and before analysis by LC-MS/MS (Waters Corp, Milford, MA, USA).

[3] = Metabolic stability in mouse hepatocytes; format: in vitro ADME; settings: cryopreserved mouse hepatocytes, 1 μM compound, 37° C., up to 90 min, read-out: Metabolic stability in hepatocytes, in vitro t1/2, Mouse
Experimental: as §3

[4] = Plasma protein binding, equilibrium dialysis, human plasma; format: in vitro ADME; settings: pH 7.4, equilibrium dialysis (RED) 4 hours at 37° C., read-out: Plasma protein binding, fu, Human
Method in brief: (§4)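 Compound at 10 μM in plasma dialysed against 67 mM phosphate buffer pH 7.4 for 4 h at 37° C. in RED device; unbound fraction from buffer and plasma levels by LC-MS/MS. Plasma stability checked in parallel over 4 h at 37° C. versus frozen control.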

[5] = Plasma protein binding, equilibrium dialysis, mouse plasma; format: in vitro ADME; settings: pH 7.4, equilibrium dialysis (RED) 4 hours at 37° C., read-out: Plasma protein binding, fu, Mouse
Method in brief: as §4

bacteria = assay: Thigh and/or septicaemia mouse model of infection, with meropenem; format: in vivo; settings: NMRI mice; single dose with meropenem subcutaneous 1 h after inoculation; endpoint 3 h after treatment initiation
Experimental: Female NMRI mice (5-6 weeks old, 26-30 gram, n=5) were rendered neutropenic via intraperitoneal injection of two doses of cyclophosphamide on day 4 and day 1 before infection. The animals were infected via intramuscular injection of an inoculum containing 10^6 CFU/mL of bacteria in the left thigh. The animals were treated with a single dose of meropenem subcutaneous +/− inhibitor 1 h after inoculation, and animals were either euthanised at the start of treatment or at the study endpoint at 3 h after treatment initiation. Clinical scores were monitored at 1 and 4 hours post inoculation and were in all cases mild or moderate. Thighs were aseptically removed from the animals, homogenised, diluted, and plated for incubation. Bacterial counting was performed after 18-22 h of incubation at 35° C. in ambient air.
Immunocompetent female NMRI mice mice (5-6 weeks old, 26-30 gram, n=5) were inoculated intraperitoneally with 0.5 ml inoculum containing 5×10^5 CFU suspended in 5% porcine mucin.
The animals were treated with a single dose of meropenem subcutaneous+/−metallo-b-lactamase inhibitor intravenous 1 h after inoculation. Animals were either euthanised at the start of treatment or at the study endpoint at 3 h after treatment initiation. Clinical scores were monitored at 1 and 4 hours post inoculation and were in all cases mild or moderate. Mice were anaesthetised anesthetized with a buprenorphine/tiletamine/zolazepam cocktail and bled, then euthanized and the peritoneum flushed with 2 ml sterile 0.9% NaCl and collected. The blood and/or peritoneal flush were serially diluted and plated for incubation. Bacterial counting was performed after 18-22 h of incubation at 35° C. in ambient air.

Chain of IMP-1 (P52699 19-246, looked up, species assumed): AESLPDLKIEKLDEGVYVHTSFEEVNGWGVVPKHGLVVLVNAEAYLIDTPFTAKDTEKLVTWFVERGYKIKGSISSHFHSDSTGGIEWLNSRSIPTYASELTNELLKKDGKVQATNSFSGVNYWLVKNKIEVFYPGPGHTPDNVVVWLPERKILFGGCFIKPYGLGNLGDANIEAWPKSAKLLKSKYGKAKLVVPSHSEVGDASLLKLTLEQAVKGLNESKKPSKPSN
Chain of NDM-1 (C7C422 29-270, looked up, species assumed): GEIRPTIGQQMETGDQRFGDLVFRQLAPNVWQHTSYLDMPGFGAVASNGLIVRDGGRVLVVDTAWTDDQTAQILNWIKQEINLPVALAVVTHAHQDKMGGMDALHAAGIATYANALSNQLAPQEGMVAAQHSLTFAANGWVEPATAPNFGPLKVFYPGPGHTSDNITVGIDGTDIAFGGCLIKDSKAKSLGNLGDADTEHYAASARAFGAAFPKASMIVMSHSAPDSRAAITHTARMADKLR

SMILES | IC50 (VIM-2) | IC50 (NDM-1) | IC50 (IMP-1) | IC50 (VIM-1) | MIC values AB NDM-1 [1] | MIC values EC NDM-7 (Escherichia coli NDM-7) | MIC values EC NDM-1 (Escherichia coli NDM-1) | half-life at 1 μM [2] | half-life at 1 μM [3] | fraction unbound at 4 h, 10 μM [4] | fraction unbound at 4 h, 10 μM [5] | Dose required to reduce minim 1 log fold CFU in a thigh and or a sepsis animal model (bacteria)
C[C@@H](c1cccc2c(-c3ccc(CS(C)(=O)=O)c(F)c3)c(C(=O)O)[nH]c12)N1C[C@]2(C[C@H](CN)C2)OC1=O [IC-61, 7-((1S)-1-(2R,4s)-(2-(aminomethyl)-6-oxo-5-oxa-7-azaspiro[3.4]oct-7-yl)ethyl)-3-(3-fluoro-4-((methylsulfonyl)methyl)phenyl)-1H-indole-2-carboxylic acid] | < 0.1 nM | < 0.1 nM | 1 to 10 nM | 0.1 to 1 nM | B (B MIC values 2 ÷ 8) | A (A = MIC values ≤ 1) | A (A = MIC values ≤ 1) | > 6.67 h | > 6.67 h | 0.05 to 0.25 | 0.005 to 0.05 | C (C = 5-10 mg/kg)
C[C@@H](c1cccc2c(-c3cc[nH]c(=O)c3)c(C(=O)O)[nH]c12)n1cc(CN2CC(N)C2)oc1=O [IC-54, 7-[(1S)-1-{5-[(3-Aminoazetidin-1-yl)methyl]-2-oxo-2,3-dihydro-1,3-oxazol-3-yl}ethyl]-3-(2-oxo-1,2-dihydropyridin-4-yl)-1H-indole-2-carboxylic acid] | 1 to 10 nM | 0.1 to 1 nM | > 10 nM | > 10 nM | B (B MIC values 2 ÷ 8) | A (A = MIC values ≤ 1) | A (A = MIC values ≤ 1) |  |  | > 0.25 | > 0.25 | C (C = 5-10 mg/kg)
CC(C)c1cccc2c(-c3cc(Cl)cc(Cl)c3)c(C(=O)O)[nH]c12 [Prior Art Compound 76, reference compound] | 0.1 to 1 nM | 1 to 10 nM | > 10 nM | > 10 nM |  |  |  | < 2.5 h | < 2.5 h | < 0.005 | < 0.005 | A (A = >100 mg/kg)
CC(NC(=O)c1ccc(CN)cc1)c1cccc2c(-c3ccc(CN4CCOCC4)nc3)c(C(=O)O)[nH]c12 (stereo not shown) [IC-11, 7-(1-((4-(Aminomethyl)benzoyl)amino)ethyl)-3-(6-(morpholin-4-ylmethyl)pyridin-3-yl)-1H-indole-2-carboxylic acid] | 1 to 10 nM | < 0.1 nM | > 10 nM | > 10 nM |  |  |  | > 6.67 h | > 6.67 h | > 0.25 | 0.005 to 0.05 | B (B = 30-10 mg/kg)
C[C@@H](c1cccc2c(-c3cncc(O)c3)c(C(=O)O)[nH]c12)N1C[C@]2(C[C@@H](CN)C2)OC1=O [IC-23, 7-((S)-1-((2S,4r)-2-(aminomethyl)-6-oxo-5-oxa-7-azaspiro[3.4]octan-7-yl)ethyl)-3-(5-hydroxypyridin-3-yl)-1H-indole-2-carboxylic acid] | 0.1 to 1 nM | 1 to 10 nM | > 10 nM | 1 to 10 nM | B (B MIC values 2 ÷ 8) | A (A = MIC values ≤ 1) | A (A = MIC values ≤ 1) |  |  | 0.05 to 0.25 | 0.005 to 0.05 | C (C = 5-10 mg/kg)
C[C@@H](c1cccc2c(-c3ccc(NS(C)(=O)=O)c(C#N)c3)c(C(=O)O)[nH]c12)n1cc(CN2CC(N)C2)oc1=O [IC-55, 7-[(1S)-1-{5-[(3-aminoazetidin-1-yl)methyl]-2-oxo-2,3-dihydro-1,3-oxazol-3-yl}ethyl]-3-(3-cyano-4-methanesulfonamidophenyl)-1H-indole-2-carboxylic acid] | 0.1 to 1 nM | < 0.1 nM | > 10 nM | > 10 nM | B (B MIC values 2 ÷ 8) | B (B MIC values 2 ÷ 8) | B (B MIC values 2 ÷ 8) | 2.5 to 6.67 h | 2.5 to 6.67 h | 0.05 to 0.25 | 0.005 to 0.05 | 
CC(c1cccc2c(-c3ccc(CS(C)(=O)=O)c(F)c3)c(C(=O)O)[nH]c12)n1cc(CN)oc1=O (stereo not shown) [IC-79, 7-(1-(5-(Aminomethyl)-2-oxooxazol-3(2H)-yl)ethyl)-3-(3-fluoro-4-((methylsulfonyl)methyl)phenyl)-1H-indole-2-carboxylic acid] | 1 to 10 nM | 0.1 to 1 nM | > 10 nM | 1 to 10 nM | A (A = MIC values ≤ 1) | A (A = MIC values ≤ 1) | A (A = MIC values ≤ 1) | > 6.67 h | < 2.5 h | > 0.25 | 0.05 to 0.25 | 
C[C@H](NC(=O)c1ccc(CN)cc1)c1cccc2c(-c3ccc(CN4CCOCC4)nc3)c(C(=O)O)[nH]c12 [IC-59, 7-((1S)-1-((4-(aminomethyl)benzoyl)amino)ethyl)-3-(6-(morpholin-4-ylmethyl)pyridin-3-yl)-1H-indole-2-carboxylic acid] | < 0.1 nM | < 0.1 nM | > 10 nM | > 10 nM | A (A = MIC values ≤ 1) | A (A = MIC values ≤ 1) | A (A = MIC values ≤ 1) |  |  |  |  | B (B = 30-10 mg/kg)
CC(c1cccc2c(-c3ccc(CS(C)(=O)=O)c(F)c3)c(C(=O)O)[nH]c12)n1cc(CCC2(N)CC2)oc1=O (stereo not shown) [IC-74, 7-(1-(5-(2-(1-aminocyclopropyl)ethyl)-2-oxooxazol-3(2H)-yl)ethyl)-3-(3-fluoro-4-((methylsulfonyl)methyl)phenyl)-1H-indole-2-carboxylic acid] | 0.1 to 1 nM | < 0.1 nM | > 10 nM | 0.1 to 1 nM | B (B MIC values 2 ÷ 8) | A (A = MIC values ≤ 1) | A (A = MIC values ≤ 1) | > 6.67 h | < 2.5 h | 0.05 to 0.25 | 0.05 to 0.25 | 
